In PubChem BioAssay AID1259407 (Chemical Carcinogenesis Research Information System (CCRIS), 2018):
Calls of active or inactive are those of the source. The rule behind the calls is not given here.

System: CCRIS mutagenicity, Ames/micronucleus/aberration tests
Test: CCRIS mutagenicity studies
[1] = Test System: AMES SALMONELLA TYPHIMURIUM, Strain/Indicator: TA98, Metabolic Activation: NONE, Method: PREINCUBATION
[2] = Test System: AMES SALMONELLA TYPHIMURIUM, Strain/Indicator: TA100, Metabolic Activation: NONE, Method: PREINCUBATION

Measured: mutagenic call

CC(C)(OOC(C)(C)c1ccccc1)c1ccccc1
inactive: Test System: AMES SALMONELLA TYPHIMURIUM, Strain/Indicator: TA97, Metabolic Activation: HAMSTER, LIVER, S-9, AROCLOR 1254 (10 OR 30%), Method: PREINCUBATION inactive; negative | Test System: AMES SALMONELLA TYPHIMURIUM, Strain/Indicator: TA97, Metabolic Activation: NONE, Method: PREINCUBATION inactive; negative | Test System: AMES SALMONELLA TYPHIMURIUM, Strain/Indicator: TA97, Metabolic Activation: RAT, LIVER, S-9, AROCLOR 1254 (10 OR 30%), Method: PREINCUBATION inactive; negative | Test System: AMES SALMONELLA TYPHIMURIUM, Strain/Indicator: TA97A, Metabolic Activation: MOUSE LIVER S-9, AROCLOR 1254, Method: PREINCUBATION inactive; negative | Test System: AMES SALMONELLA TYPHIMURIUM, Strain/Indicator: TA97A, Metabolic Activation: NONE, Method: PREINCUBATION inactive; negative | Test System: AMES SALMONELLA TYPHIMURIUM, Strain/Indicator: TA97A, Metabolic Activation: RAT LIVER S-9, AROCLOR 1254, Method: PREINCUBATION inactive; negative | Test System: AMES SALMONELLA TYPHIMURIUM, Strain/Indicator: TA98, Metabolic Activation: HAMSTER, LIVER, S-9, AROCLOR 1254 (10 OR 30%), Method: PREINCUBATION inactive; negative | Test System: AMES SALMONELLA TYPHIMURIUM, Strain/Indicator: TA98, Metabolic Activation: NONE, Method: FLUCTUATION (MICROTITER) inactive; negative | [1] inactive; negative | Test System: AMES SALMONELLA TYPHIMURIUM, Strain/Indicator: TA98, Metabolic Activation: RAT LIVER S-9, AROCLOR 1254, Method: FLUCTUATION (MICROTITER) inactive; negative | Test System: AMES SALMONELLA TYPHIMURIUM, Strain/Indicator: TA98, Metabolic Activation: RAT, LIVER, S-9, AROCLOR 1254 (10 OR 30%), Method: PREINCUBATION inactive; negative | Test System: AMES SALMONELLA TYPHIMURIUM, Strain/Indicator: TA100, Metabolic Activation: HAMSTER, LIVER, S-9, AROCLOR 1254 (10 OR 30%), Method: PREINCUBATION inactive; negative | Test System: AMES SALMONELLA TYPHIMURIUM, Strain/Indicator: TA100, Metabolic Activation: MOUSE LIVER S-9, AROCLOR 1254, Method: PREINCUBATION inactive; negative | [2] inactive; negative | Test System: AMES SALMONELLA TYPHIMURIUM, Strain/Indicator: TA100, Metabolic Activation: RAT LIVER S-9, AROCLOR 1254, Method: PREINCUBATION inactive; negative | Test System: AMES SALMONELLA TYPHIMURIUM, Strain/Indicator: TA100, Metabolic Activation: RAT, LIVER, S-9, AROCLOR 1254 (10 OR 30%), Method: PREINCUBATION inactive; negative | Test System: AMES SALMONELLA TYPHIMURIUM, Strain/Indicator: TA102, Metabolic Activation: NONE, Method: PREINCUBATION inactive; negative | Test System: AMES SALMONELLA TYPHIMURIUM, Strain/Indicator: TA102, Metabolic Activation: RAT LIVER S-9, AROCLOR 1254, Method: PREINCUBATION inactive; negative | Test System: AMES SALMONELLA TYPHIMURIUM, Strain/Indicator: TA104, Metabolic Activation: MOUSE LIVER S-9, AROCLOR 1254, Method: PREINCUBATION inactive; negative | Test System: AMES SALMONELLA TYPHIMURIUM, Strain/Indicator: TA104, Metabolic Activation: NONE, Method: PREINCUBATION inactive; negative | Test System: AMES SALMONELLA TYPHIMURIUM, Strain/Indicator: TA104, Metabolic Activation: RAT LIVER S-9, AROCLOR 1254, Method: PREINCUBATION inactive; negative | Test System: AMES SALMONELLA TYPHIMURIUM, Strain/Indicator: TA1535, Metabolic Activation: HAMSTER, LIVER, S-9, AROCLOR 1254 (10 OR 30%), Method: PREINCUBATION inactive; negative | Test System: AMES SALMONELLA TYPHIMURIUM, Strain/Indicator: TA1535, Metabolic Activation: NONE, Method: PREINCUBATION inactive; negative | Test System: AMES SALMONELLA TYPHIMURIUM, Strain/Indicator: TA1535, Metabolic Activation: RAT, LIVER, S-9, AROCLOR 1254 (10 OR 30%), Method: PREINCUBATION inactive; negative | Test System: AMES SALMONELLA TYPHIMURIUM, Strain/Indicator: TA1537, Metabolic Activation: NONE, Method: FLUCTUATION (MICROTITER) inactive; negative | Test System: AMES SALMONELLA TYPHIMURIUM, Strain/Indicator: TA1537, Metabolic Activation: RAT LIVER S-9, AROCLOR 1254, Method: FLUCTUATION (MICROTITER) inactive; negative | Test System: AMES SALMONELLA TYPHIMURIUM, Strain/Indicator: TA7001, Metabolic Activation: NONE, Method: FLUCTUATION (MICROTITER) inactive; negative | Test System: AMES SALMONELLA TYPHIMURIUM, Strain/Indicator: TA7001, Metabolic Activation: RAT LIVER S-9, AROCLOR 1254, Method: FLUCTUATION (MICROTITER) inactive; negative | Test System: AMES SALMONELLA TYPHIMURIUM, Strain/Indicator: TA7002, Metabolic Activation: NONE, Method: FLUCTUATION (MICROTITER) inactive; negative | Test System: AMES SALMONELLA TYPHIMURIUM, Strain/Indicator: TA7002, Metabolic Activation: RAT LIVER S-9, AROCLOR 1254, Method: FLUCTUATION (MICROTITER) inactive; negative | Test System: AMES SALMONELLA TYPHIMURIUM, Strain/Indicator: TA7003, Metabolic Activation: NONE, Method: FLUCTUATION (MICROTITER) inactive; negative | Test System: AMES SALMONELLA TYPHIMURIUM, Strain/Indicator: TA7003, Metabolic Activation: RAT LIVER S-9, AROCLOR 1254, Method: FLUCTUATION (MICROTITER) inactive; negative | Test System: AMES SALMONELLA TYPHIMURIUM, Strain/Indicator: TA7004, Metabolic Activation: NONE, Method: FLUCTUATION (MICROTITER) inactive; negative | Test System: AMES SALMONELLA TYPHIMURIUM, Strain/Indicator: TA7004, Metabolic Activation: RAT LIVER S-9, AROCLOR 1254, Method: FLUCTUATION (MICROTITER) inactive; negative | Test System: AMES SALMONELLA TYPHIMURIUM, Strain/Indicator: TA7005, Metabolic Activation: NONE, Method: FLUCTUATION (MICROTITER) inactive; negative | Test System: AMES SALMONELLA TYPHIMURIUM, Strain/Indicator: TA7005, Metabolic Activation: RAT LIVER S-9, AROCLOR 1254, Method: FLUCTUATION (MICROTITER) inactive; negative | Test System: AMES SALMONELLA TYPHIMURIUM, Strain/Indicator: TA7006, Metabolic Activation: NONE, Method: FLUCTUATION (MICROTITER) inactive; negative | Test System: AMES SALMONELLA TYPHIMURIUM, Strain/Indicator: TA7006, Metabolic Activation: RAT LIVER S-9, AROCLOR 1254, Method: FLUCTUATION (MICROTITER) inactive; negative

CCc1c2ccccc2cc2c3c(ccc12)[C@H](O)[C@@H](O)[C@H]1O[C@@H]31
active: [1] active; positive | [2] active; positive | Test System: CHINESE HAMSTER V-79, Strain/Indicator: V-79/6-THIOGUANINE, Metabolic Activation: NONE active; positive
